# Measurements as given in patent publication US20230126298A1, “DEUYERATED TRYPTAMINE DERIVATIVE FORMULATIONS AND METHODS OF USE” (priority 2020, published 2023).
# What was measured:
# [1] = Metabolic stability in rat liver microsomes (RLM); settings: for RLM, metabolized or not (R / NR): last time point 120 min; for RLM, % (half-life as % vs. the related nondeuterated compound): values in square brackets are within 10% (assay's accuracy), no deuteration effect; for metabolic stability in RLM, in words: deuterated vs. comparator
# hrMAO-A = molecular target: T1, hrMAO-A (Homo sapiens, UniProt P21397); experiment: Metabolic stability in the presence of hrMAO-A; format: in vitro ADME; settings: for MAO, metabolized or not (R / NR): last time point 120 min
# T1 construct: purchased XenoTech Lot #8213001
# T1 sequence (P21397 1-527): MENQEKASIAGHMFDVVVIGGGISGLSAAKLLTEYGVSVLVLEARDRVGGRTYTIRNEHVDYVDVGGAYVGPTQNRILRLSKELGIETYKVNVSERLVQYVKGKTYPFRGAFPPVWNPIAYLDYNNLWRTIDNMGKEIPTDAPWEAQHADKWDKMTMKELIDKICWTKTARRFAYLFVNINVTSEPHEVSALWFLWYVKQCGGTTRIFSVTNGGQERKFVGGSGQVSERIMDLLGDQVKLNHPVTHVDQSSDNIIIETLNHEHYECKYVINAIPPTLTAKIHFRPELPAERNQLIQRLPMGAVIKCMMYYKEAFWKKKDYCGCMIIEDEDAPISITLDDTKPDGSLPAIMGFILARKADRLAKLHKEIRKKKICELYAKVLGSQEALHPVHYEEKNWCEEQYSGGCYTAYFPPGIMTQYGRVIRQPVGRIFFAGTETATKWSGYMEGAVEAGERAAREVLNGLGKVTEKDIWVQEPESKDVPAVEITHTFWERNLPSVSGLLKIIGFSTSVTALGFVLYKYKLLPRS
# Method: The reaction mixture was prepared as described below. The co-dosed TAs were added into the reaction mixture at a final concentration of 1 microM each. The positive control, kynuramine (25 microM), was run simultaneously with the TAs in a separate reaction. The reaction mixture (without TAs or kynuramine) was equilibrated in a shaking water bath at 37° C. for 5 minutes. The reaction was initiated by the addition of the TAs or kynuramine, and the mixture was incubated in a shaking water bath at 37° C. Aliquots (100 microL) of the TA reaction mixture were withdrawn at 0, 5, 10, 20, 30, 60, and 120 minutes. Aliquots (100 microL) of the positive control reaction mixture were withdrawn at 0 and 30 minutes. TA and kynuramine samples were immediately combined with 100 microL of ice-cold 100% MeCN containing 0.1% formic acid and IS to terminate the reaction. The samples were then mixed and centrifuged to precipitate proteins. All TA samples were assayed by LC-HRAMS. The PARR (analyte to IS) at each time point was compared to the PARR at time 0 to determine the percent remaining at each time point. Reaction composition: hrMAO 0.02 mg/mL; Potassium Phosphate, pH 7.4 100 mM; Magnesium Chloride 5 mM; Test Articles (each) 1 microM.
# [2] = oral; cited from earlier work
# [3] = PK study in rats, cassette dosing, oral gavage or catheter; format: in vivo; settings: rat, 5 mg/kg, % change vs. non-deuterated material; for Deuterium kinetic isotope effect (% change) F: bioavailability
# Method: (§1) The key PK parameters (presented as a % change vs. non-deuterated materials) are presented in Table 3 to include half-life (T1/2), area under the curve (AUC), bioavailability (F) and blood-to-plasma ration (BPR). Pharmacokinetics of the deuterated tryptamines was studied in rats. In a typical experiment, run as a cassette dosing, two groups of 5 Wistar female rats (200-250 g) with surgically inserted jugular vein catheter (Charles River, Andover, Mass.) were fasted for 12 h and then administered 5 mg/kg of the deuterated and 5 mg/kg of the related non-deuterated analog, by oral gavage or via a catheter for each group. At time points 0, 15, 30, 60 min, and 2, 4, 8, and 24 h, the resulting plasma was analyzed for the parent molecule using LC/MS spectroscopy. Two separate groups of 5 animals were used for determining blood-to-plasma ratio (BPR). Each group was sacrificed at time points 15 and 30 min, respectively, and the concentration of the parent drug was determined in the […] and plasma by LC/MS spectroscopy.
# [4] = Blood-to-plasma ratio (BPR), drug in brain and plasma of rats; format: in vivo; settings: rat, % change vs. non-deuterated material
# Method: as §1
compound,measurement,setting,value
C=CCN(CC=C)CCc1c[nH]c2ccccc12,"RLM, metabolized or not (R / NR)",[1]; RLM,R
C=CCNCCc1c[nH]c2ccccc12,"RLM, metabolized or not (R / NR)",[1]; RLM,R
[2H]C([2H])([2H])C([2H])([2H])NC([2H])([2H])C([2H])([2H])c1c[nH]c2cccc(O)c12,"RLM, % (half-life as % vs. the related nondeuterated compound)",[1]; RLM,[93] %
CCN(CC)CCc1c[nH]c2ccccc12,"RLM, metabolized or not (R / NR)",[1]; RLM,R
[2H]C([2H])(c1c[nH]c2ccc(OC)cc12)C([2H])([2H])N(CC)CC,"RLM, % (half-life as % vs. the related nondeuterated compound)",[1]; RLM,[95] %
CCN(CC)CCc1c[nH]c2ccc(OC)cc12,"RLM, metabolized or not (R / NR)",[1]; RLM,R
CCN(CC)CCc1c[nH]c2ccc(O)cc12,"RLM, metabolized or not (R / NR)",[1]; RLM,R
CCN(CC)CCc1c[nH]c2cccc(OC)c12,"RLM, metabolized or not (R / NR)",[1]; RLM,R
[2H]c1ccc2[nH]c([2H])c(CCN([2H])CC)c2c1O,"RLM, metabolized or not (R / NR)",[1]; RLM,R
[2H]C([2H])(NCC)C([2H])([2H])c1c[nH]c2ccccc12,"MAO, % (half-life as % vs. the related nondeuterated compound)","hrMAO-A; MAO-A, values in square brackets are within 10% (assay's accuracy), no deuteration effect",140%
[2H]C([2H])(NCC)C([2H])([2H])c1c[nH]c2cccc(O)c12,"RLM, % (half-life as % vs. the related nondeuterated compound)",[1]; RLM,[94] %
CCNCCc1c[nH]c2cccc(O)c12,"RLM, metabolized or not (R / NR)",[1]; RLM,R
[2H]C([2H])(c1c[nH]c2cccc(OC)c12)C([2H])([2H])N(C)C,"RLM, % (half-life as % vs. the related nondeuterated compound)",[1]; RLM,190%
[2H]C([2H])(NC)C([2H])([2H])c1c[nH]c2cccc(O)c12,"RLM, % (half-life as % vs. the related nondeuterated compound)",[1]; RLM,160%
CC(C)NCCc1c[nH]c2ccccc12,"RLM, metabolized or not (R / NR)",[1]; RLM,R
CC(C)NCCc1c[nH]c2cccc(O)c12,"RLM, metabolized or not (R / NR)",[1]; RLM,R
[2H]C([2H])(c1c[nH]c2cccc(O)c12)C([2H])([2H])N(C(C)C)C(C)C,"RLM, % (half-life as % vs. the related nondeuterated compound)",[1]; RLM,[97] %
CC(C)N(CCc1c[nH]c2cccc(O)c12)C(C)C,"RLM, metabolized or not (R / NR)",[1]; RLM,R
"COc1cc(CCNCc2ccccc2OC)c(OC)cc1Cl [2C-C-NBOMe, 2-(4-Chloro-2,5-dimethoxyphenyl)-N-[(2-methoxyphenyl)methyl]ethan-1-amine]",orally active dose,[2],≥ 25 µg
"[2H]C([2H])(Cc1c[nH]c2ccc(OC)cc12)N(C)C [5-MeO-DMT-α,α-d2]",Deuterium kinetic isotope effect (% change) AUC,[3],60%
same,Deuterium kinetic isotope effect (% change) T1/2,[3],30%
same,Deuterium kinetic isotope effect (% change) F,[3],200%
same,"Deuterium kinetic isotope effect (% change) BPR, 15 min",[4],120%
same,"Deuterium kinetic isotope effect (% change) BPR, 30 min",[4],180%
"CN(C)CCc1c[nH]c2ccccc12 [DMT, reference compound]",% Remaining of Initial 0 min,"hrMAO-A; hrMAO-A, Table 3",100%
same,Half-life,"hrMAO-A; hrMAO-A, Table 3",0.453 h
same,% Remaining of Initial 0 min,"[1]; RLM, Table 2",100%
same,% Remaining of Initial 20 min,"[1]; RLM, 20 min, Table 2",41.0%
[2H]C([2H])(Cc1c[nH]c2ccccc12)N(C)C [DMT-d2],% Remaining of Initial 0 min,"hrMAO-A; hrMAO-A, Table 3",100%
same,% Remaining of Initial 60 min,"hrMAO-A; hrMAO-A, 60 min, Table 3",76.0%
same,Half-life,"hrMAO-A; hrMAO-A, Table 3",> 2 h
same,% Remaining of Initial 0 min,"[1]; RLM, Table 2",100%
same,% Remaining of Initial 60 min,"[1]; RLM, 60 min, Table 2",32.0%
[2H]C([2H])(c1c[nH]c2ccccc12)C([2H])([2H])N(C)C [DMT-d4],% Remaining of Initial 0 min,"hrMAO-A; hrMAO-A, Table 3",100%
same,Half-life,"hrMAO-A; hrMAO-A, Table 3",> 2 h
same,% Remaining of Initial 0 min,"[1]; RLM, Table 2",100%
[2H]C([2H])([2H])N(C([2H])([2H])[2H])C([2H])([2H])C([2H])([2H])c1c[nH]c2ccccc12 [DMT-d10],"metabolism in the MAO-A enzymatic assay, in words",hrMAO-A,superiority
same,% Remaining of Initial 0 min,"hrMAO-A; hrMAO-A, Table 3",100%
same,% Remaining of Initial 0 min,"hrMAO-A; hrMAO-A, Table 5 (d8 and d10 analogs)",100.0%
same,% Remaining of Initial 5 min,"hrMAO-A; hrMAO-A, 5 min, Table 5",99.0%
same,Half-life,"hrMAO-A; hrMAO-A, Table 3",> 2 h
same,Half-life,"hrMAO-A; hrMAO-A, Table 5",> 2 h
same,% Remaining of Initial 0 min,"[1]; RLM, Table 2",100%
same,% Remaining of Initial 0 min,"[1]; RLM, Table 4 (d8 and d10 analogs)",100%
same,% Remaining of Initial 10 min,"[1]; RLM, 10 min, Table 4",56.0%
same,"metabolic stability in RLM, in words",[1],Further enhancement of metabolic stability
[2H]c1[nH]c2c([2H])c([2H])c([2H])c([2H])c2c1C([2H])([2H])C([2H])([2H])N(C([2H])([2H])[2H])C([2H])([2H])[2H] [DMT-d15],"metabolic stability in RLM, in words",[1],no improvement in half-life
"[2H]C([2H])(Cc1c[nH]c2cccc(O)c12)N(C)C [PI-α,α-d2]",Deuterium kinetic isotope effect (% change) AUC,[3],75%
same,Deuterium kinetic isotope effect (% change) T1/2,[3],50%
same,Deuterium kinetic isotope effect (% change) F,[3],45%
same,"Deuterium kinetic isotope effect (% change) BPR, 15 min",[4],100%
same,"Deuterium kinetic isotope effect (% change) BPR, 30 min",[4],150%
CCNCCc1c[nH]c2ccccc12 [reference compound],"MAO, metabolized or not (R / NR)",hrMAO-A; MAO-A,R
same,"RLM, metabolized or not (R / NR)",[1]; RLM,R
CCN(C)CCc1c[nH]c2ccccc12 [reference compound],"MAO, metabolized or not (R / NR)",hrMAO-A; MAO-A,R
same,"RLM, metabolized or not (R / NR)",[1]; RLM,R
CCN(C)CCc1c[nH]c2ccc(OC)cc12 [reference compound],"MAO, metabolized or not (R / NR)",hrMAO-A; MAO-A,R
same,"RLM, metabolized or not (R / NR)",[1]; RLM,R
CCN(C)CCc1c[nH]c2ccc(O)cc12 [reference compound],"MAO, metabolized or not (R / NR)",hrMAO-A; MAO-A,R
same,"RLM, metabolized or not (R / NR)",[1]; RLM,R
CCN(C)CCc1c[nH]c2cccc(OC)c12 [reference compound],"MAO, metabolized or not (R / NR)",hrMAO-A; MAO-A,R
same,"RLM, metabolized or not (R / NR)",[1]; RLM,R
COc1ccc2[nH]cc(CCN(C)C)c2c1 [reference compound],"MAO, metabolized or not (R / NR)",hrMAO-A; MAO-A,R
same,"RLM, metabolized or not (R / NR)",[1]; RLM,R
CN(C)CCc1c[nH]c2ccc(O)cc12 [reference compound],"MAO, metabolized or not (R / NR)",hrMAO-A; MAO-A,R
same,"RLM, metabolized or not (R / NR)",[1]; RLM,R
COc1cccc2[nH]cc(CCN(C)C)c12 [reference compound],"MAO, metabolized or not (R / NR)",hrMAO-A; MAO-A,R
same,"RLM, metabolized or not (R / NR)",[1]; RLM,R
CNCCc1c[nH]c2ccccc12 [reference compound],"MAO, metabolized or not (R / NR)",hrMAO-A; MAO-A,R
same,"RLM, metabolized or not (R / NR)",[1]; RLM,R
CNCCc1c[nH]c2cccc(O)c12 [reference compound],"MAO, metabolized or not (R / NR)",hrMAO-A; MAO-A,R
same,"RLM, metabolized or not (R / NR)",[1]; RLM,R
